Experimental data from ChEMBL document CHEMBL2021889, “Multipotent MAO and cholinesterase inhibitors for the treatment of Alzheimer's disease: synthesis, pharmacological analysis and molecular modeling of heterocyclic substituted alkyl and cycloalkyl propargyl amine” (Eur J Med Chem, 2012).

Key:
[1] = target: T1, Acetylcholinesterase (Electrophorus electricus, UniProt O42275)
Description: Inhibition of electric eel AChE using acetylthiocholine iodide as substrate after 15 mins by Ellman's method

[2] = target: T2, Butyrylcholinesterase (Equus caballus, UniProt Q9N1N9)
Description: Inhibition of equine serum BChE using butyrylthiocholine iodide as substrate after 15 mins by Ellman's method

[3] = target: T3, Amine oxidase [flavin-containing] B (Rattus norvegicus, UniProt P19643); test: biochemical
T3 sequence (P19643 whole entry): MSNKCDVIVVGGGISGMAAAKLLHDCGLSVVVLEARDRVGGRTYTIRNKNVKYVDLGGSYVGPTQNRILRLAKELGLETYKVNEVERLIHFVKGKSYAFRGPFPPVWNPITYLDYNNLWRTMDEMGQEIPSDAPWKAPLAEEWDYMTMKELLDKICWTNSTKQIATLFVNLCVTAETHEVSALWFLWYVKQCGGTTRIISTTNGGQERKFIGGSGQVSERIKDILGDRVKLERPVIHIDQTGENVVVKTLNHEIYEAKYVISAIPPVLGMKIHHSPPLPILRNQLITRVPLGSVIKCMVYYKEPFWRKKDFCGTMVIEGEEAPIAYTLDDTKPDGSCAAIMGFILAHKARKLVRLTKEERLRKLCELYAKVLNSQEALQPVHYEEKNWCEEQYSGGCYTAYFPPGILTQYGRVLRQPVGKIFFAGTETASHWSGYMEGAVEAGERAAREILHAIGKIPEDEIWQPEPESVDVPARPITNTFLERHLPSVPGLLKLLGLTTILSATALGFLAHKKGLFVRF
Description: Inhibition of mitochondrial MAO-B in rat liver homogenates using [14C]-phenylethylamine as substrate preincubated for 30 mins by liquid scintillation counting

[4] = target: T4, Amine oxidase [flavin-containing] A (Rattus norvegicus, UniProt P21396); test: biochemical
T4 sequence (P21396 whole entry): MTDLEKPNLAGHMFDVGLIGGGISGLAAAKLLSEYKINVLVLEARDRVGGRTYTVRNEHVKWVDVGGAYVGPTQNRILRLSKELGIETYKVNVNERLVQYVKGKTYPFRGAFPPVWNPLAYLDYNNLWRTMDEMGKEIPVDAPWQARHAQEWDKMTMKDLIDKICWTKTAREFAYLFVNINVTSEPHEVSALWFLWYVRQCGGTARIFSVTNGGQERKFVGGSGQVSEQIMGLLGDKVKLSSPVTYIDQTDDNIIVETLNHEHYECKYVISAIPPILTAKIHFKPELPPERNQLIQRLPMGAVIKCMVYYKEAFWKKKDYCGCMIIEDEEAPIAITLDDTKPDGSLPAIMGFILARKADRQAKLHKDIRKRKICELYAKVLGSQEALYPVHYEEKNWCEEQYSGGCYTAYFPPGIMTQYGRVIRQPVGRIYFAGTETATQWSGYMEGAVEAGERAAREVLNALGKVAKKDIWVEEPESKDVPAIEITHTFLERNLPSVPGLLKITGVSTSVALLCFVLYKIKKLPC
Description: Inhibition of mitochondrial MAO-A in rat liver homogenates using [14C]-(5-hydroxy-triptamine) as substrate preincubated for 30 mins by liquid scintillation counting

[5] = target: T2, Butyrylcholinesterase; test: Competitive inhibition of equine serum BChE using acetylthiocholine as substrate by Lineweaver-Burk plot analysis
[6] = target: T1, Acetylcholinesterase; test: Non-competitive inhibition of electric eel AChE using acetylthiocholine as substrate by Lineweaver-Burk plot analysis
[7] = target: Cholinesterase (Homo sapiens, UniProt P06276); test: Inhibition of human serum BuChE using butyrylthiocholine iodide as substrate by Ellman's method
Chain of Cholinesterase (P06276 whole entry): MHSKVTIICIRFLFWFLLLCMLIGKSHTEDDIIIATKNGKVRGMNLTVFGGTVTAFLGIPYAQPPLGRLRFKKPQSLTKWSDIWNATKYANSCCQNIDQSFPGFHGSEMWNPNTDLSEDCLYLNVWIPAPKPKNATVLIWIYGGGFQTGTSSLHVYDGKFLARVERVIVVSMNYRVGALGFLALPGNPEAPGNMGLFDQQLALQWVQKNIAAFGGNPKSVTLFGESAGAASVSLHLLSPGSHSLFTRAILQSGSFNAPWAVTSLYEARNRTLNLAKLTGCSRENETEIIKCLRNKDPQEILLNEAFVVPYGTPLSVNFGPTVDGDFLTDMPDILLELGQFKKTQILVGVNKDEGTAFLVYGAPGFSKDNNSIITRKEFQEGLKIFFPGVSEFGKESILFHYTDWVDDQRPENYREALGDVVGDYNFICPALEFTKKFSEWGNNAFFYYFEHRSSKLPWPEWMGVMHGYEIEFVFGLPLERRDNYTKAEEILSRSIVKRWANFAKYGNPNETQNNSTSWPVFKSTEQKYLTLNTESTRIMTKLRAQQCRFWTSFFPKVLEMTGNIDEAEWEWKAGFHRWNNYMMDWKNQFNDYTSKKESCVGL

[8] = target: Acetylcholinesterase (Homo sapiens, UniProt P22303); test: Inhibition of human recombinant AChE using acetylthiocholine iodide as substrate by Ellman's method
Chain of Acetylcholinesterase (Homo sapiens, UniProt P22303) (P22303 whole entry): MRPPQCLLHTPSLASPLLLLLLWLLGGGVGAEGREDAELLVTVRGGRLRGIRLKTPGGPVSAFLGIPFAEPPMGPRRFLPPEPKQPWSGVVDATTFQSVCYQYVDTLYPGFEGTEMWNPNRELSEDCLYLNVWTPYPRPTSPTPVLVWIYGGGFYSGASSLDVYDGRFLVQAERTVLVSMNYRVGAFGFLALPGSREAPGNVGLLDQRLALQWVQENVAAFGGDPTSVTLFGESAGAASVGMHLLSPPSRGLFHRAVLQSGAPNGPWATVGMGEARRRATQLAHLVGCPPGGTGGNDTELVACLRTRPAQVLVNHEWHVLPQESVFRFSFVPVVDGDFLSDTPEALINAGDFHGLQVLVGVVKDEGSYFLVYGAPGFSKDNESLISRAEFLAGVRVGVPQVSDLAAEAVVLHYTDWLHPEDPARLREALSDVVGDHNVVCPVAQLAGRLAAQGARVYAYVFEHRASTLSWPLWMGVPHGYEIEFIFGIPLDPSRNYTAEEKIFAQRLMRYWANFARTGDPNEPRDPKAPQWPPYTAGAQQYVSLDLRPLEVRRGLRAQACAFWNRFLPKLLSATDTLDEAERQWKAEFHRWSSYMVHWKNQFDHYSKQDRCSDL

T1 sequence (O42275 whole entry): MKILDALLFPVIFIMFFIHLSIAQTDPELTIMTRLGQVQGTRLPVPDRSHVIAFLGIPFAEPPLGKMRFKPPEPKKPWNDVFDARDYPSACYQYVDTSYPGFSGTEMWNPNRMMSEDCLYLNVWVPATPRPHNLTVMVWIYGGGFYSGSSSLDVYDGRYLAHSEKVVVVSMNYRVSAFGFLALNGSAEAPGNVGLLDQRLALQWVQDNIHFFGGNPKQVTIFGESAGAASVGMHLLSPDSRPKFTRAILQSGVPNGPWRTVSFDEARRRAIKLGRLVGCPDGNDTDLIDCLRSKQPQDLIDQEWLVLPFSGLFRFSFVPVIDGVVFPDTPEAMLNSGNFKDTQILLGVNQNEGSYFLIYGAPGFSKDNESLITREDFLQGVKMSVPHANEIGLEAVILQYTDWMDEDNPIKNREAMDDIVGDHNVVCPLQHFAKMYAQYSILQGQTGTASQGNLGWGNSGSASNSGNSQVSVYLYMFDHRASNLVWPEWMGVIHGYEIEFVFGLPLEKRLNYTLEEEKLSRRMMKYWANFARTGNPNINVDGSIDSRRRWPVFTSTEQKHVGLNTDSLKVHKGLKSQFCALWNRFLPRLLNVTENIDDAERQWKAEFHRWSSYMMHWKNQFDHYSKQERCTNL
T2 sequence (Q9N1N9 whole entry): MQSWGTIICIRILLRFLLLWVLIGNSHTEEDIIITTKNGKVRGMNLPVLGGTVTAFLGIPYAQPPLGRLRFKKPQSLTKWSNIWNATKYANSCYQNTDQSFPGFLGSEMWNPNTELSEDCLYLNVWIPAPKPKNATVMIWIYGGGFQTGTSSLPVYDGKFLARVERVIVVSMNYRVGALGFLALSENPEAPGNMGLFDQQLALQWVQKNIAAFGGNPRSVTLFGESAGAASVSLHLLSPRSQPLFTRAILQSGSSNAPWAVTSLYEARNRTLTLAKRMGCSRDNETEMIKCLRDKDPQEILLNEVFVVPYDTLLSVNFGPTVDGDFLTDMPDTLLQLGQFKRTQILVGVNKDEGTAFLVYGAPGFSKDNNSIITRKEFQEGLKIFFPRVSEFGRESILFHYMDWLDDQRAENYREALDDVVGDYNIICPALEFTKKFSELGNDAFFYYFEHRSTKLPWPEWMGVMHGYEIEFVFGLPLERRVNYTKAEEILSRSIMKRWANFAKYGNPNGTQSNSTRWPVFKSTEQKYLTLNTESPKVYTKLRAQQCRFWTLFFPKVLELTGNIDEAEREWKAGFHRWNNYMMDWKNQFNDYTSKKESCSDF

SMILES | IC50 [1] [nM] | IC50 [2] [µM] | IC50 [3] [µM] | IC50 [4] [µM] | Ki [5] [µM] | Ki [6] [nM] | IC50 [7] [µM] | IC50 [8] [nM]
C#CCNCc1cc2cc(OCc3ccccc3)ccc2[nH]1 | > 100000 | 43 | 0.022 |  |  |  |  | 
CNCc1cc2cc(OCc3ccccc3)ccc2n1C | > 100000 | 11 | 44.1 | 99.3 |  |  |  | 
C#CCN(C)Cc1cc2cc(OCc3ccccc3)ccc2n1C | > 100000 | > 100 |  |  |  |  |  | 
CC#CCN(C)Cc1cc2cc(OCc3ccccc3)ccc2n1C | > 100000 | > 100 |  |  |  |  |  | 
C=C=CCN(C)Cc1cc2cc(OCc3ccccc3)ccc2n1C | > 100000 | 14 |  |  |  |  |  | 
C#CCN(C)Cc1cc2cc(OCc3ccccc3)ccc2[nH]1 | > 100000 | 22 |  |  |  |  |  | 
CC#CCN(C)Cc1cc2cc(OCc3ccccc3)ccc2[nH]1 | > 100000 | 7 |  |  | 7.1 |  |  | 
C#CCN1CCc2nc3ccccc3c(N)c2C1 | 1500 | 6.6 | 617 | 241 |  |  |  | 
C#CCN1CCc2nc3nc(Cl)c(C#N)cc3c(N)c2C1 | 1400 | > 100 | 660 | 1050 |  |  |  | 
C#CCN1CCc2nc3nc(OC)c(C#N)cc3c(N)c2C1 | 540 | > 100 | > 100 | 495 |  |  |  | 
C#CCN1CCc2nc3nc(N(C)C)c(C#N)cc3c(N)c2C1 | 29 | > 100 | 281 | 1000 |  |  |  | 
C#CCN1CCc2nc3nc(N4CCCC4)c(C#N)cc3c(N)c2C1 | 25 | 27 | 357 | 618 |  | 65 | 82 | 650
C#CCN1CCc2nc3nc(N4CCCCC4)c(C#N)cc3c(N)c2C1 | 66 | 10 | 296 | 330 |  |  |  | 
